Reference: ChEMBL document CHEMBL1126320, “N,N'-disubstituted guanidine high-potency sweeteners” (J Med Chem, 1992)

Tests used:
[1] = Sweetness potency at 2% sucrose solution
[2] = Sweetness potency at 4% sucrose solution
[3] = Sweetness potency at 1 mg/mL sucrose solution; weakly bitter

Row | Structure (SMILES) | Sweetness potency [1] | other results
1 | C[C@H](/N=C(/NCC(=O)O)Nc1ccc(C#N)cc1)c1ccccc1 | 28000 | 
2 | N/C(=N\C(c1ccccc1)c1ccccc1)NCC(=O)O |  | Sweetness potency [2]: 400
3 | N#Cc1ccc(N/C(=N\CC(=O)O)NC(c2ccccc2)c2ccccc2)cc1 | 200000 | 
4 | C[C@H](/N=C(\N)NCC(=O)O)c1ccccc1 |  | Sweetness potency [3]: weakly bitter
5 | N/C(=N\CC(=O)O)NCC1CCCCC1 |  | Sweetness potency [3]: weakly bitter
6 | N/C(=N\C1CCCCCCC1)NCC(=O)O | 200 | 
7 | N#Cc1ccc(N/C(=N\CC(=O)O)NCC2CCCCC2)cc1 | 35000 | 
8 | N#Cc1ccc(N/C(=N/CC(=O)O)NC2CCCCCCC2)cc1 | 170000 | 
